Experimental data as given in US4708954A, “Hypogylcemic oxaluric acid derivatives” (Nippon Zoki Pharmaceutical Co., Ltd., priority 1985, dated 1987).
Where a name gives a salt, the structure may show the parent alone.

Key:
Wistar-strain male rats = experiment: Hypoglycemic effect (blood glucose level in fasted, glucose-loaded rats); format: in vivo; conditions: 100 mg/kg oral, 2 hours later; for Blood Glucose Level: fasted rats with s.c. 20% glucose 0.5 ml/100 g, control 139 ± 3; for inhibition in vivo at 100 mg/kg: Rattus norvegicus, decrease vs control (139 ± 3 mg/dl)
Method: Groups of 7 Wistar-strain male rats (weighing about 200 g) which were fasted for 20 hours were used for measurement of the hypoglycemic effect according to the modified method by Dulin et al. [Dulin, W. L. et al., Proc. Soc. Expl. Med., 107, 245 (1961)]. That is, 0.5 ml/100 g of 20% aqueous solution of glucose was subcutaneously administered to the backs of rats to prevent a decrease in blood glucose level because of the fasting. […] The obtained blood sample was allowed to stand for 30 minutes to complete the coagulation and was centrifuged to obtain the serum. Blood sugar level was measured according to the mutalotase GOD method [Trinder, Ann. Clin. Biochem., 6, 24 (1979)].

[1] = Acute toxicity test (oral, lethal dose by deaths over 7 days); conditions: mouse, in vivo, suspended in 0.5% aqueous C.M.C., fasted 20 hours, deaths for 7 days
Method: The test compounds of the present invention suspended in 0.5% aqueous solution of carboxymethylcellulose (C.M.C.) were orally administered to groups of 4 to 6 ddY-strain male mice (weighing about 19 g) which had fasten for 20 hours. The lethal dose was determined by the number of deaths for 7 days thereafter.

Row | Structure (SMILES) | Blood Glucose Level (Wistar-strain male rats) | inhibition in vivo at 100 mg/kg (Wistar-strain male rats) | LD50 at 168 h [1]
1 | CCCCNC(=O)NS(=O)(=O)c1ccc(C)cc1 [Tolubutamide, reference compound] | 50 ± 1 mg/dL | 64% | 
2 | CNC(=O)NC(=O)C(=O)O [compound 1, 5-methyloxaluric acid ammonium salt] | 104 ± 7 mg/dL | 25.2% | 
3 | CCNC(=O)NC(=O)C(=O)O [compound 2, 5-ethyloxaluric acid ammonium salt] | 102 ± 4 mg/dL | 26.6% | 3000 to 4000 mg/kg
4 | CCCCNC(=O)NC(=O)C(=O)O [compound 3, 5-butyloxaluric acid] | 103 ± 5 mg/dL | 26% | 
5 | CCOC(=O)C(=O)NC(=O)NC [compound 12, 5-methyloxaluric acid ethyl ester] | 81 ± 5 mg/dL | 41.7% | 
6 | CCCCNC(=O)NC(=O)C(=O)OC [compound 13, 5-butyloxaluric acid methyl ester] | 88 ± 3 mg/dL | 36.7% | 1000 to 2000 mg/kg
7 | CCOC(=O)C(=O)NC(=O)NCC(C)C [compound 14, 5-iso-butyloxaluric acid ethyl ester] | 93 ± 2 mg/dL | 33.1% | 
8 | CCCCOC(=O)C(=O)NC(=O)NC [compound 20, 5-methyloxaluric acid butyl ester] | 101 ± 6 mg/dL | 27.3% | > 4000 mg/kg
9 | CNC(=O)NC(=O)C(=O)OCC(C)C [compound 21, 5-methyloxaluric acid iso-butyl ester] | 115 ± 4 mg/dL | 17.3% | 
10 | CCCCCCCCOC(=O)C(=O)NC(=O)NC [compound 22, 5-methyloxaluric acid octyl ester] | 122 ± 2 mg/dL | 12.2% | 
